From patent publication US8846669B2, “Oxazolidinone derivative and medical composition containing same” (Legochem Biosciences, Inc., priority 2011, dated 2014)
In brackets after ≈: the same amount, converted by molar mass.

Key:
Assay in all cases: In vitro antibacterial activity, broth microdilution MIC90
Assay type in all cases: cell-based
[1] = tested on: Linezolid and Vancomycin Resistant Enterococcus faecalis
Experimental: (§1) MIC90 was measured by broth microdilution method based on CLSI standards [reference: Clinical and Laboratory Standards Institute Document. (2000) Methods for Dilution Antimicrobial Susceptibility Test for Bacteria that Grow Aerobically-Fifth Edition: M7-A5. CLSI, Villanova, Pa.].
(§2) Activities of 12 strains including Staphylococcus aureus, Methicillin Resistant Staphylococcus aureus, Staphylococcus epidermidis, Methicillin Resistant Staphylococcus epidermidis, Enterococcus faecalis, Vancomycin Resistant Enterococcus faecalis, Linezolid and Vancomycin Resistant Enterococcus faecalis, Enterococcus faecium, Vancomycin Resistant Enterococcus faecium, Linezolid and Vancomycin Resistant Enterococcus faecium, and Moraxella catarrhalis, were measured, and results are shown in Table 1 below.
(§3) The final concentration of test material in the antibacterial test was from 0.063 μg/mL (minimum) to 128 μg/mL (maximum), and the final concentration of DMSO used as an excipient was 2.5% (V/V). Linezolid represented by Formula B below (manufactured by Pfizer) was used as a control and bacterial activity thereof was compared with those of the test materials.

[2] = tested on: Staphylococcus epidermidis
Experimental: as §1, §2, §3

[3] = tested on: Methicillin Resistant Staphylococcus aureus
Experimental: as §1, §2, §3

[4] = tested on: Linezolid and Vancomycin Resistant Enterococcus faecium (strain 11)
Experimental: as §1, §2, §3

[5] = tested on: Vancomycin Resistant Enterococcus faecium
Experimental: as §1, §2, §3

Enterococcus faecium = tested on: Enterococcus faecium
Experimental: as §1, §2, §3

Staphylococcus aureus = tested on: Staphylococcus aureus
Experimental: as §1, §2, §3

[6] = tested on: Methicillin Resistant Staphylococcus epidermidis
Experimental: as §1, §2, §3

[7] = tested on: Linezolid and Vancomycin Resistant Enterococcus faecium (strain 10)
Experimental: as §1, §2, §3

Moraxella catarrhalis = tested on: Moraxella catarrhalis
Experimental: as §1, §2, §3

Enterococcus faecalis = tested on: Enterococcus faecalis
Experimental: as §1, §2, §3

[8] = tested on: Vancomycin Resistant Enterococcus faecalis
Experimental: as §1, §2, §3

SMILES	MIC90 ([1]; Enterococcus faecalis) [µg/mL]	MIC90 ([2]; Staphylococcus epidermidis) [µg/mL]	MIC90 ([3]; Staphylococcus aureus) [µg/mL]	MIC90 ([4]; Enterococcus faecium) [µg/mL]	MIC90 ([5]; Enterococcus faecium) [µg/mL]	MIC90 (Enterococcus faecium; Enterococcus faecium) [µg/mL]	MIC90 (Staphylococcus aureus; Staphylococcus aureus) [µg/mL]	MIC90 ([6]; Staphylococcus epidermidis) [µg/mL]	MIC90 ([7]; Enterococcus faecium) [µg/mL]	MIC90 (Moraxella catarrhalis; Moraxella catarrhalis) [µg/mL]	MIC90 (Enterococcus faecalis; Enterococcus faecalis) [µg/mL]	MIC90 ([8]; Enterococcus faecalis) [µg/mL]	MIC90 ([1]; strain 7, E. faecalis VanA LR) [µg/mL]	MIC90 ([2]; strain 3, S. epidermidis) [µg/mL]	MIC90 ([3]; strain 2, S. aureus MR) [µg/mL]	MIC90 ([4]; strain 11, E. faecium VanA LR) [µg/mL]	MIC90 ([5]; strain 9, E. faecium VanA) [µg/mL]	MIC90 (Enterococcus faecium; strain 8, E. faecium) [µg/mL]	MIC90 (Staphylococcus aureus; strain 1, S. aureus) [µg/mL]	MIC90 ([6]; strain 4, S. epidermidis MR) [µg/mL]	also measured
O=C(CO)N1CCN(c2ccc(-c3ccc(N4C[C@H](Cn5ccnn5)OC4=O)cc3F)cn2)C=N1 [Compound 32]	2 (≈ 4.16 µM)	0.25 (≈ 0.52 µM)	1 (≈ 2.08 µM)	2 (≈ 4.16 µM)	0.5 (≈ 1.04 µM)	0.25 (≈ 0.52 µM)	0.25 (≈ 0.52 µM)	1 (≈ 2.08 µM)	2 (≈ 4.16 µM)	2 (≈ 4.16 µM)	0.5 (≈ 1.04 µM)	0.5 (≈ 1.04 µM)									
NC(=O)N1CCN(c2ccc(-c3ccc(N4C[C@H](Cn5ccnn5)OC4=O)cc3F)cn2)C=N1 [Compound 33]	2 (≈ 4.3 µM)	0.25 (≈ 0.537 µM)	1 (≈ 2.15 µM)	2 (≈ 4.3 µM)	0.25 (≈ 0.537 µM)	0.125 (≈ 0.269 µM)	0.25 (≈ 0.537 µM)	1 (≈ 2.15 µM)	2 (≈ 4.3 µM)	2 (≈ 4.3 µM)	0.25 (≈ 0.537 µM)	0.25 (≈ 0.537 µM)									
CNC(=O)N1CCN(c2ccc(-c3ccc(N4C[C@H](Cn5ccnn5)OC4=O)cc3F)cn2)C=N1 [Compound 34]	2 (≈ 4.17 µM)	0.5 (≈ 1.04 µM)	0.5 (≈ 1.04 µM)	4 (≈ 8.34 µM)	0.5 (≈ 1.04 µM)	0.25 (≈ 0.521 µM)	0.25 (≈ 0.521 µM)	1 (≈ 2.09 µM)	2 (≈ 4.17 µM)	2 (≈ 4.17 µM)	0.5 (≈ 1.04 µM)	0.5 (≈ 1.04 µM)									
O=C(C(O)CO)N1CCN(c2ccc(-c3ccc(N4C[C@H](Cn5ccnn5)OC4=O)cc3F)cn2)C=N1 (stereo partly drawn) [Compound 37]	8 (≈ 15.7 µM)	1 (≈ 1.96 µM)	1 (≈ 1.96 µM)	8 (≈ 15.7 µM)	1 (≈ 1.96 µM)	1 (≈ 1.96 µM)	0.5 (≈ 0.979 µM)	2 (≈ 3.92 µM)	8 (≈ 15.7 µM)	8 (≈ 15.7 µM)	1 (≈ 1.96 µM)	1 (≈ 1.96 µM)									
NCC(=O)N1CCN(c2ccc(-c3ccc(N4C[C@H](Cn5ccnn5)OC4=O)cc3F)cn2)C=N1 [Compound 38]	4 (≈ 8.34 µM)	0.5 (≈ 1.04 µM)	0.5 (≈ 1.04 µM)	4 (≈ 8.34 µM)	0.5 (≈ 1.04 µM)	0.25 (≈ 0.521 µM)	0.125 (≈ 0.261 µM)	0.5 (≈ 1.04 µM)	4 (≈ 8.34 µM)	2 (≈ 4.17 µM)	0.25 (≈ 0.521 µM)	0.5 (≈ 1.04 µM)									
Cl.O=C1O[C@@H](CNc2ccon2)CN1c1ccc(-c2ccc(N3C=NNCC3)nc2)c(F)c1 [Compound 39]													4	1	0.5	4	1	0.25	0.25	2	MIC90 ([7]; strain 10, E. faecium VanA LR): 4 µg/mL; MIC90 (Moraxella catarrhalis; strain 12, M. catarrhalis): 2 µg/mL; MIC90 (Enterococcus faecalis; strain 5, E. faecalis): 0.5 µg/mL; MIC90 ([8]; strain 6, E. faecalis VanA): 1 µg/mL
CN1CCN(c2ccc(-c3ccc(N4C[C@H](CNc5ccon5)OC4=O)cc3F)cn2)C=N1 [Compound 40]													2 (≈ 4.43 µM)	0.5 (≈ 1.11 µM)	0.25 (≈ 0.554 µM)	4 (≈ 8.86 µM)	0.5 (≈ 1.11 µM)	0.125 (≈ 0.277 µM)	0.25 (≈ 0.554 µM)	2 (≈ 4.43 µM)	MIC90 ([7]; strain 10, E. faecium VanA LR): 4 µg/mL (≈ 8.86 µM); MIC90 (Moraxella catarrhalis; strain 12, M. catarrhalis): 2 µg/mL (≈ 4.43 µM); MIC90 (Enterococcus faecalis; strain 5, E. faecalis): 0.5 µg/mL (≈ 1.11 µM); MIC90 ([8]; strain 6, E. faecalis VanA): 1 µg/mL (≈ 2.22 µM)
O=C(CO)N1CCN(c2ccc(-c3ccc(N4C[C@H](CNc5ccon5)OC4=O)cc3F)cn2)C=N1 [Compound 41]													2 (≈ 4.04 µM)	0.5 (≈ 1.01 µM)	0.25 (≈ 0.505 µM)	4 (≈ 8.07 µM)	0.5 (≈ 1.01 µM)	0.125 (≈ 0.252 µM)	0.25 (≈ 0.505 µM)	2 (≈ 4.04 µM)	MIC90 ([7]; strain 10, E. faecium VanA LR): 4 µg/mL (≈ 8.07 µM); MIC90 (Moraxella catarrhalis; strain 12, M. catarrhalis): 2 µg/mL (≈ 4.04 µM); MIC90 (Enterococcus faecalis; strain 5, E. faecalis): 0.5 µg/mL (≈ 1.01 µM); MIC90 ([8]; strain 6, E. faecalis VanA): 1 µg/mL (≈ 2.02 µM)
NCC(=O)N1CCN(c2ccc(-c3ccc(N4C[C@H](CNc5ccon5)OC4=O)cc3F)cn2)C=N1 [Compound 42]													2 (≈ 4.04 µM)	0.5 (≈ 1.01 µM)	0.5 (≈ 1.01 µM)	4 (≈ 8.09 µM)	0.5 (≈ 1.01 µM)	0.125 (≈ 0.253 µM)	0.25 (≈ 0.506 µM)	2 (≈ 4.04 µM)	MIC90 ([7]; strain 10, E. faecium VanA LR): 4 µg/mL (≈ 8.09 µM); MIC90 (Moraxella catarrhalis; strain 12, M. catarrhalis): 2 µg/mL (≈ 4.04 µM); MIC90 (Enterococcus faecalis; strain 5, E. faecalis): 0.5 µg/mL (≈ 1.01 µM); MIC90 ([8]; strain 6, E. faecalis VanA): 1 µg/mL (≈ 2.02 µM)
